The text below walks through data of ChEMBL document CHEMBL1146372, “Total synthesis of (R,R,R)- and (S,S,S)-schweinfurthin F: differences of bioactivity in the enantiomeric series” (Bioorg Med Chem Lett, 2007).

pIC50: −log10 of the molar value.

Experiment [1] is described as follows: Growth inhibition of NCI60 cells after 48 hrs. In kind it is functional. The following applies: Homo sapiens, NCI60, 48 h.
For the next experiment, the system named is RPMI. In words: Inhibition of DNA synthesis in human RPMI cells by [3H]-thymidine incorporation assay. In kind it is functional, cell-based. (Uptake of a labelled nucleoside into DNA is a usual measure of proliferation.)
In another experiment the test system is Hs-578T. Description: Growth inhibition of HS578T cells. The format is functional. The note with it: Homo sapiens.
Another experiment relates to U-251. In words: Growth inhibition of U251 cells. The format is functional. The following applies: Homo sapiens.
The test system of the next experiment is SNB-75. Description: Growth inhibition of SNB75 cells. In kind it is functional. The note with it: Homo sapiens.

One may read the GI50 as the concentration that inhibits growth by half. In general, pIC50 refers to the negative decadic logarithm of the IC50, by convention in mol/L. Lower therefore signals a high IC50.

Turning to `COc1cc(/C=C/c2cc3c(c(OC)c2)O[C@]2(C)CC[C@@H](O)C(C)(C)[C@H]2C3)cc(O)c1CC=C(C)C`, the GI50 in experiment [1] was 870 nM.

`COc1cc(/C=C/c2cc3c(c(OC)c2)O[C@@]2(C)CC[C@H](O)C(C)(C)[C@@H]2C3)cc(O)c1CC=C(C)C` yielded a GI50 in experiment [1] of 4600 nM.

`COc1cc(/C=C/c2cc(O)c(CC=C(C)C)c(O)c2)cc2c1O[C@@]1(C)CC[C@H](O)C(C)(C)[C@@H]1C2` (single isomer, unassigned): in the experiment with RPMI, the pIC50 was 5.47. Moreover, the GI50 with Hs-578T is below 10 nM; with U-251, below 10 nM; in experiment [1] it was 130 nM; with SNB-75 it was 1700 nM.

The compound `COc1cc(/C=C/c2cc(O)c(C/C=C(\C)CCC=C(C)C)c(O)c2)cc2c1O[C@@]1(C)CC[C@H](O)C(C)(C)[C@@H]1C2` (single isomer, unassigned) gave a pIC50 with RPMI of 5.35. Further, halving of growth in experiment [1] (GI50) required 2200 nM.

In the experiment with RPMI, `COc1cc(/C=C/c2cc(O)c(C/C=C(\C)CCC=C(C)C)c(O)c2)cc2c1O[C@]1(C)CC[C@@H](O)C(C)(C)[C@H]1C2` (single isomer, unassigned) [3-DEOXYSCHWEINFURTHIN B] showed a negative logarithm of the IC50 (pIC50) of 6.68. In experiment [1], this compound came in with a concentration for 50% growth inhibition (GI50) of 870 nM.

`COc1cc(/C=C/c2cc(O)c(CC=C(C)C)c(O)c2)cc2c1O[C@]1(C)CC[C@@H](O)C(C)(C)[C@H]1C2` (single isomer, unassigned) [SCHWEINFURTHIN F] had a negative logarithm of the IC50 (pIC50) with RPMI of 6.24. Also, the GI50 with Hs-578T was below 10 nM; in the experiment on U-251, 13000 nM; in experiment [1] it was 410 nM; in the experiment on SNB-75, 10 nM.

`CC(C)=CCC/C(C)=C/Cc1c(O)cc(/C=C/c2cc(O)c3c(c2)C[C@@H]2C(C)(C)[C@H](O)[C@H](O)C[C@@]2(C)O3)cc1O` [SCHWEINFURTHIN A] displayed a 50% growth inhibitory concentration (GI50) in experiment [1] of 360 nM.

Consider `COc1cc(/C=C/c2cc(O)c(C/C=C(\C)CCC=C(C)C)c(O)c2)cc2c1O[C@]1(C)C[C@@H](O)[C@@H](O)C(C)(C)[C@H]1C2` [SCHWEINFURTHIN B], for which the concentration for 50% growth inhibition (GI50) in experiment [1] amounted to 810 nM.

For the compound `CC(C)=CCc1c(O)cc(/C=C/c2cc(O)c3c(c2)C[C@@H]2C(C)(C)[C@H](O)[C@H](O)C[C@@]2(C)O3)cc1O` [VEDELIANIN], it took 80 nM to inhibit growth in experiment [1] by half (GI50).
